In BindingDB's records for doi:10.1016/j.bmc.2016.08.054 (National Institute of Public Health-National Institute of …, 2016) one finds IC50 data, which are given here for eleven compounds.

pIC50: −log10 of the molar value.

In the first experiment the target is Aminopeptidase N (Sus scrofa) (UniProt P15145). Kind of experiment: Inhibition of porcine kidney microsomal LAP using l-leucine-7-amido-4-methylcoumarin as substrate incubated for 60 mins measured every 3 mins by fluorescence assay.
Aminopeptidase N (Sus scrofa), sequence (P15145 whole entry, looked up): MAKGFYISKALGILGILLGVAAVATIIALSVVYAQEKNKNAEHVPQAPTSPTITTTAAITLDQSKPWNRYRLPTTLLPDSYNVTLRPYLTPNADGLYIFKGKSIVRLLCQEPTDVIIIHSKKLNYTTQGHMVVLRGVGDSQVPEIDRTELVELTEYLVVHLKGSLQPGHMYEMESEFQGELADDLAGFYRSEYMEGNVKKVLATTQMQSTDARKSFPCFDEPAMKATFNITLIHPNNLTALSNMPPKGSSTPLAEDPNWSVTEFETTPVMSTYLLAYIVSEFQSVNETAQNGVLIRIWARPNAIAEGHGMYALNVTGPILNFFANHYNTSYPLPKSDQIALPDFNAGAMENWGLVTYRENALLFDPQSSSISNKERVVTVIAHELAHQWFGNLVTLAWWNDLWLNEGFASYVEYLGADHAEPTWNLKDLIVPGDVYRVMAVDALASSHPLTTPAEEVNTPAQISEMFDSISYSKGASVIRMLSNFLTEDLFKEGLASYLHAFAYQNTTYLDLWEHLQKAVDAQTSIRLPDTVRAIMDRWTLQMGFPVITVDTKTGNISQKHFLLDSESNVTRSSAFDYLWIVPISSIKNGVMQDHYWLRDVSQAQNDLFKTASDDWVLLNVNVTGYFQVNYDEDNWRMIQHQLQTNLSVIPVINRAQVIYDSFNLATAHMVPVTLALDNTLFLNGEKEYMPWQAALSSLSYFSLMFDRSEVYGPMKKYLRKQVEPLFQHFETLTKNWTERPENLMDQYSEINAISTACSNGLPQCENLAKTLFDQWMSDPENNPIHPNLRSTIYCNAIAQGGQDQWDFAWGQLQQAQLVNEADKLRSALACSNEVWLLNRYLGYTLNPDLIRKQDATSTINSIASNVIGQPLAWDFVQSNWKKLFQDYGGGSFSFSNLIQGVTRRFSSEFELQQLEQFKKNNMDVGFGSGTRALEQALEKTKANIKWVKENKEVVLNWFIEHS
Usually pIC50 stands for the IC50 on a negative log10 scale, so that one unit is a factor of ten. Low readings indicate a large IC50, high ones a small IC50. For `O=C(O)C1Cc2cc(O)c(Br)c(O)c2C=N1` (configuration not stated), the negative logarithm of the IC50 (pIC50) was 4.11.

Consider `O=C(O)C1Cc2cc(O)c(O)c(Br)c2C=N1` (configuration not stated), for which the negative-log IC50 (pIC50) is 4.17.

`O=C(O)C1Cc2cc(O)cc(O)c2C=N1` (configuration not stated) gave a pIC50 of 3.42.

The compound `O=C(O)C1Cc2cc(O)c(O)cc2C=N1` (configuration not stated) showed a negative logarithm of the IC50 (pIC50) of 3.95.

`O=C(O)C1Cc2cc(O)c(O)c(O)c2C=N1` (configuration not stated): the pIC50 was 3.11.

`O=C(O)C1Cc2cc(O)c(I)cc2C=N1` (configuration not stated) gave a pIC50 of 4.16.

As for `CCOC(=O)C1(C(=O)OCC)Cc2cc(OCc3ccccc3)cc(OCc3ccccc3)c2C=N1`, the pIC50 is 4.78.

In turn, `COc1cc2c(cc1OC)CCC(C(=O)OCc1ccccc1)(C(=O)OCc1ccccc1)N=C2` gave a pIC50 of 2.98.

Take `O=C(O)C1Cc2cc(O)c(O)c(I)c2C=N1` (configuration not stated): the pIC50 is 4.20.

Compound `O=C(O)C1Cc2c(O)c(O)cc(Br)c2C=N1` (configuration not stated) showed a pIC50 of 3.39.

On to `O=C(O)C1CCc2cc(O)c(O)cc2C=N1` (configuration not stated), for which the pIC50 was 3.79.

Another experiment shares this target. Briefly: Inhibition of porcine kidney microsomal LAP using l-leucine-7-amido-4-methylcoumarin as substrate incubated for 10 hrs measured every 6 mins by fluorescence assay.
For the compound `CCOC(=O)C1(C(=O)OCC)Cc2cc(OCc3ccccc3)cc(OCc3ccccc3)c2C=N1`, the pIC50 is 4.47.
